Source: US6579718B1, “Carbazolylvinyl dye protein stains” (Molecular Probes, Inc., priority 2000, dated 2003)

Assays:
proteins [1] = assay: Staining of proteins separated in presence of alternative detergents; settings: alternative detergents instead of SDS
proteins [2] = assay: Dye staining and dye stability in 12.5% trichloroacetic acid
Description: To make a staining mixture to combine with the sample mixture, including to test new dyes for their ability to stain proteins in a variety of situations, the selected dye is typically first dissolved in an organic solvent, such as DMSO, DMF or methanol, usually to a dye concentration of 1-10 mM. This concentrated stock solution is then generally diluted with an aqueous solution according to the assay being performed. Staining solutions can be stored and used for months without signal loss. The selected dye effectively stains proteins in a wide range of buffers if 100 mM NaCl is included in the staining solution. Acceptable buffers include, among others, 50-100 mM formate buffer, pH 4.0, sodium citrate, pH 4.5, sodium acetate, pH 5.0, MES, pH 6.0, imidazole, pH 7.0, HEPES, pH 7.5, Tris acetate, pH 8.0, Tris-HCl, pH 8.5, Tris borate, pH 9.0 and sodium bicarbonate, pH 10. Dye staining can also be performed in 12.5% trichloroacetic acid. […] A 20-minute wash in water removes the background and sensitive staining is obtained. […] Acetic acid may be included in the staining mixture, typically to a concentration of 5%-7.5% acetic acid, e.g. to improve labeling of gels relative to that obtained for dyes in water. For staining polypeptides in solution, the dye is diluted into an aqueous solution—preferably a buffered solution—that optionally contains a detergent. […]

BSA = BSA (Bos taurus, UniProt P02769); assay: Absorbance/emission spectra, fluorescence enhancement and quantum yield of dyes in solution +/- BSA (Example 21); format: physicochemical, bovine
Description: A particular dye of this invention is generally selected for a particular assay using one or more of the following criteria: sensitivity to poly(amino acids), insensitivity to the presence of nucleic acids, dynamic range, photostability, staining time, and spectral properties. […] Although the fluorescence enhancements and quantum yields are low to moderate in solution, some are significant relative to the long wavelength emission maxima (see Table 1 and Example 21).
Measurements are performed using −1 μM dye+/−150 μg/mL BSA in 10 mM Tris-HCl, pH 7.5,+0.05% SDS with a 2.0 mL sample volume. Fluorescence enhancements are calculated at emission maxima in a standard fluorometer using 470 nm excitation. Fluorescence quantum yields are determined relative to fluorescein (in 0.1 M NaOH), using 470 nm excitation.

[3] = system: whole cell lysates of rat fibroblasts; assay: Staining of two-dimensional gels of rat fibroblast lysates (Example 23); settings: 2-D gel, photography with 490-nm long pass filter
Description: The non-fixative nature of the staining solution is illustrated by evaluating passive elution of proteins from a polyacrylamide matrix. Passive diffuision of proteins is evaluated by staining two-dimensional gels in 7% acetic acid or in phosphate-buffered saline using Compound 9. Whole cell lysates of rat fibroblasts are extracted according to standard procedures for mammalian cells. Approximately 50 μg total protein is applied per gel and large format two dimensional gel electrophoresis is performed by standard methods. Compound 9 staining solution is prepared by diluting the stock reagent to 2 μM in either 7.5% acetic acid or 50 mM Na2HPO4, 150 mM NaCl, pH 7.0 while vigorously mixing. Approximately 500-750 mL of Compound 9 staining solution is used for a typical large format 2-D gel (20 cm×20 cm×1 mm). The gel is placed into the staining solution and the container is covered with aluminum foil to protect the dye from bright light. The gel is gently agitated for at least 30 minutes at room temperature using an orbital shaker (50 RPM). After staining the gel is briefly dipped in water and visualized on a UV light box. […] As little as 1 ng of protein can be visualized when the fluorescent image is recorded by photography using a cellophane 490-nm long pass filter. […]

bovine serum albumin = bovine serum albumin (Bos taurus, UniProt P02769); assay: Fluorescence enhancement in presence of bovine serum albumin and SDS in solution (FIG. 5); format: physicochemical; settings: 10 mM Tris, pH 8.0, 200 μg/mL bovine serum albumin
Description: FIG. 5: Fluorescence enhancement of Compound 9 in the presence of bovine serum albumin and sodium dodecyl sulfate in solution. Dye in 10 mM Tris, pH 8.0, 200 μg/mL bovine serum albumin, 0.05% SDS was compared with dye in 10 mM Tris, pH 8.0, 200 μg/mL bovine serum albumin, dye in 10 mM Tris, pH 8.0, 0.05% SDS or simply dye in 10 mM Tris, pH 8.0. A 7-fold enhancement in fluorescence emission of the dye in the presence of protein alone was observed relative to the dye in buffer alone. A 40-fold enhancement of fluorescence emission of the dye in the presence of anionic detergent and protein was observed relative to dye in buffer alone.

proteins [4] = assay: Prestaining of proteins prior to electrophoresis (Example 31); settings: prestaining before electrophoresis
Description: The proteins of interest are diluted to appropriate concentrations in electrophoresis sample buffer. The samples are then heated to 90-95° C. for 4-5 minutes and allowed to cool to room temperature. Compound 9 is added to the protein solutions to a final concentration of 10 mM, and the samples are loaded onto a 12% polyacrylamide gel, or other appropriate percentage gel. The gel is electrophoresed under standard conditions and visualized directly using ultraviolet illumination. The sensitivity of this method is somewhat less than the sensitivity possible using the methods in Example 22 (post staining the gel after electrophoresis) or in Example 30 (dye in running buffer).

[5] = 150 μg/mL BSA, 10 mM Tris-HCl, pH 7.5, 0.05% SDS
[6] = dye without BSA, 10 mM Tris-HCl, pH 7.5, 0.05% SDS

Sequence of BSA (P02769 25-607): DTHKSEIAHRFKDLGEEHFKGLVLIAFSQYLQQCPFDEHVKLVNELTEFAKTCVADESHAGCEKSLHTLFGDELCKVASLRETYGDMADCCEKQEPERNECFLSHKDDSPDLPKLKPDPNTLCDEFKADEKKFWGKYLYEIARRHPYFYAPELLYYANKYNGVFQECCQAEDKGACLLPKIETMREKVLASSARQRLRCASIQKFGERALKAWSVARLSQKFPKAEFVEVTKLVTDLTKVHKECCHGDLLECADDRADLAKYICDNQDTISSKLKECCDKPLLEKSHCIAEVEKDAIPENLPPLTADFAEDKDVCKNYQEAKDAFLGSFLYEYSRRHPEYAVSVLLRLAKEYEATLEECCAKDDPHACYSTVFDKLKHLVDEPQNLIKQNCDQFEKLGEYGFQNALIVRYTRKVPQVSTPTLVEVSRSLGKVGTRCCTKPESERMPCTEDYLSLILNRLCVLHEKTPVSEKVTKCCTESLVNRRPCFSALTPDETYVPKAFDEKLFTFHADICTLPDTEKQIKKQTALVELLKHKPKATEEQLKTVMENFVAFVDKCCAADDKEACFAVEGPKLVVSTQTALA
Sequence of bovine serum albumin (P02769 25-607): as above

Stability of dye on overnight exposure to 12.5% trichloroacetic acid (proteins [2]; overnight): destroys much of the dye
ABS λ max, BSA (BSA; [5]): 480 nm
EM λ max, BSA (BSA; [5]): 604 nm
FE (fluorescence enhancement, BSA) (BSA; 150 μg/mL BSA, 0.05% SDS, at emission maxima, 470 nm excitation): 92 fold
Quantum Yield (BSA) (BSA; 150 μg/mL BSA, relative to fluorescein in 0.1 M NaOH, 470 nm excitation): 0.21
ABS λ max, unbound (BSA; [6]): 479 nm
EM λ max, unbound (BSA; [6]): ~700 nm
Enhancement in fluorescence emission, protein alone relative to dye in buffer alone (bovine serum albumin): 7 fold
Enhancement of fluorescence emission, anionic detergent and protein relative to dye in buffer alone (bovine serum albumin; 0.05% SDS): 40 fold
Structure (SMILES): CCn1c2ccccc2c2cc(/C=C/c3cc[n+](CCCCS(=O)(=O)[O-])c4ccccc34)ccc21 [Compound 9]
Staining of proteins separated in presence of Triton X-100 or N-benzyl-N,N-dimethylhexadecylammonium chloride (proteins [1]): does not stain proteins
Staining of proteins in 12.5% trichloroacetic acid (proteins [2]): stains proteins brightly, but also with bright background fluorescence
Amount of protein that can be visualized (detection sensitivity) [3]: 1 ng
Sensitivity compared with methods of Example 22 or Example 30 (proteins [4]): somewhat less
